In paper PMC8704606, “The Artemiside-Artemisox-Artemisone-M1 Tetrad: Efficacies against Blood Stage P. falciparum Parasites, DMPK Properties, and the Case for Artemiside” (Pharmaceutics, 2021):
Where two headings read alike, the source gives them in different places.

Columns and labels:
[1] = system: TM93-C1088 (atovaquone and CQ resistant); parameters: method as in ref S2; conditions: [3H]-hypoxanthine assay; ref S2; read-out: Antimalarial activities IC50 TM93-C1088; cited from earlier work
[2] = system: TM91-C235 (CQ and MFQ resistant); parameters: method as in ref S2; conditions: [3H]-hypoxanthine assay; ref S2; read-out: Antimalarial activities IC50 TM91-C235; cited from earlier work
7G8 (CQ resistant) = system: 7G8 (CQ resistant); parameters: method as in ref S2; conditions: [3H]-hypoxanthine assay; ref S2; read-out: Antimalarial activities IC50 7G8; cited from earlier work
[3] = system: asexual blood stages of Pf K1 (drug resistant); parameters: method as in PMID 29866868, PMID 31998692; conditions: cited from earlier work
W2 (CQ resistant) = system: W2 (CQ resistant); parameters: method as in ref S2; conditions: [3H]-hypoxanthine assay; ref S2; read-out: Antimalarial activities IC50 W2; cited from earlier work
[4] = system: asexual blood stages of Pf NF54 (drug sensitive); parameters: method as in PMID 29866868, PMID 31998692; conditions: asexual blood stage Pf NF54, CQ sensitive; SYBR Green I; ± SEM; cited from earlier work
D6 (CQ sensitive) = system: D6 (CQ sensitive); parameters: method as in ref S2; conditions: [3H]-hypoxanthine assay; ref S2; read-out: Antimalarial activities IC50 D6; cited from earlier work
[5] = system: early-stage (EG) Pf NF54 gametocytes; parameters: method as in PMID 29866868; conditions: early-stage gametocytes >95% stages II-III; 48 h incubation; ± SEM; cited from earlier work
[6] = system: Chinese hamster ovary (CHO) cells; parameters: method as in PMID 29866868, PMID 31998692; conditions: other cell lines including CHO cells; read-out: EC50 cytotoxicity; cited from earlier work
[7] = system: P. falciparum asexual blood stage artemisinin-resistant clone PL08-009 (5C) carrying the PfKI3 C580Y mutation; parameters: method as in ref S3; conditions: ref S3, cited from earlier work
[8] = system: asexual blood stages of Pf W2 (drug resistant); parameters: method as in PMID 29866868, PMID 31998692; conditions: cited from earlier work
TM-C2B = system: TM-C2B; parameters: method as in ref S2; conditions: [3H]-hypoxanthine assay; ref S2; read-out: Antimalarial activities IC50 TM-C2B; cited from earlier work
P. falciparum W2 = system: P. falciparum W2; parameters: method as in ref S3; conditions: [3H]-hypoxanthine assay; ref S3; cited from earlier work
[9] = system: late-stage (LG) Pf NF54 gametocytes; parameters: method as in PMID 29866868; conditions: late-stage gametocytes >90% stages IV-V; 48 h incubation; ± SEM; cited from earlier work
[10] = system: P. falciparum asexual blood stage artemisinin-resistant clone ARC08-22 (4G) carrying the PfKI3 C580Y mutation; parameters: method as in ref S3; conditions: ref S3, cited from earlier work
[11] = system: fetal rat brain stem cells; conditions: ref S4 (24), cited from earlier work
[12] = system: asexual blood stages of Pf NF54 (drug sensitive); experiment: SYBR Green I proliferation assay, asexual blood stages, Pf NF54; assay type: cell-based, Plasmodium falciparum
Method: (§1) Dose response curves are in Figures S1a–c and S2a–c in the Supplementary Material 1. Table 1 also includes the historical values for artemiside and artemisone obtained using the same assay.
(§2) All other assay conditions are as previously described. Compound working solutions were prepared from a 10 mM stock solution in 100% (vol/vol) dimethyl sulfoxide (DMSO, Sigma-Aldrich) in supplemented RPMI 1640 medium containing AlbuMAX II with a final DMSO concentration of 0.1% (vol/vol), previously determined to be nontoxic to blood stage asexual parasites and gametocytes. The dose-responses of the amino-artemisinins were assayed using a 2-fold serial drug dilution on in vitro 95% ring-stage parasites at 37 °C under 90% N2, 5% CO2, and 5% O2 atmospheric conditions, detecting SYBR green I fluorescence as the proliferative marker following a 96 h drug treatment (1% parasitemia and 1% hematocrit) using a GloMaxR-Multi+ Detection System (Promega). No drug washout steps were performed during drug incubation periods prior to the assays. Activity against the Pf drug-sensitive NF54 strain and the drug-resistant K1 (resistant to CQ, quinine, pyrimethamine, and cycloguanil) and W2 (resistant to CQ, quinine, pyrimethamine, and cycloguanil) strains was evaluated. Data analysis was performed using GraphPad Prism (version 6), intra-assay variability was monitored with Z-factors, and acceptable interassay reproducibility was determined from the percent coefficient of variation (CV).

[13] = system: asexual blood stages of Pf W2 (drug resistant); experiment: SYBR Green I proliferation assay, asexual blood stages, Pf W2; assay type: cell-based, Plasmodium falciparum
Method: as §1, §2

[14] = system: asexual blood stages of Pf K1 (drug resistant); experiment: SYBR Green I proliferation assay, asexual blood stages, Pf K1; assay type: cell-based, Plasmodium falciparum
Method: as §1, §2

[15] = system: early-stage (EG) Pf NF54 gametocytes; experiment: Luciferase assay, early-stage gametocytes; assay type: cell-based, Plasmodium falciparum; conditions: Plasmodium falciparum, NF54, 48 h, early-stage gametocytes >95% stages II-III; 48 h incubation; ± SEM
Method: (§3) For screening artemisox and M1 against early- (EG) and late-stage (LG) gametocytes, the luciferase assay with transgenic NF54-pfs16-GFP-Luc and NF54-Mal8p1.16-GFP-Luc parasite lines was used. With this assay, stage-specificity of gametocytocidal action was established (Table 2). Dose-response curves are in Figures S1d,e and S2d in the Supplementary Material 1. […] As was observed previously for artemisone and artemiside, dose responses for artemisox and M1 could not be obtained at 48 h against late-stage gametocytes.
(§4) The same reference compounds with the exception of CQ were used for the early- and late-stage gametocyte assays. Gametocytocidal activity was determined using the transgenic NF54-pfs16-GFP-Luc and NF54-Mal8p1.16-GFP-Luc reporter lines. Compounds were initially screened for activity at a fixed drug concentration of 1 µM, with dose responses subsequently determined using 2-fold serial drug dilutions for 48 h against early-stage gametocytes (day 5 post-induction population, ≥95% stages II–III) and 10-fold serial drug dilutions for 48 h or 72 h against late-stage gametocytes (day 10 post-induction population, ≥90% late-stage [stages IV–V]) (2 to 3% gametocytemia, 2% hematocrit) at 37 °C under 90% N2, 5% CO2, and 5% O2 [6]. No drug washout steps were performed during the drug incubation periods prior to the assays. In all cases, an interference assay was run in parallel to eliminate the possibility of false positives arising through compound interference with the luciferase readout.

[16] = Cytotoxicity (LDH assay) against HepG2 cells; assay type: cell-based; conditions: human, HepG2 cells (hepatocellular carcinoma)
Method: Cytotoxicity against mammalian hepatocellular carcinoma cells (HepG2 cells) was determined using the lactate dehydrogenase assay (LDH, Biovision Inc., Milpitas, CA, USA). […] Compound working solutions were prepared from 10 mM stock solutions (100% DMSO) in complete DMEM to a final DMSO (Sigma-Aldrich) conc. of <0.1% (vol/vol). […] Data analysis was performed using GraphPad Prism (version 6) software.

[17] = system: late-stage (LG) Pf NF54 gametocytes; experiment: Luciferase assay, late-stage gametocytes; assay type: cell-based, Plasmodium falciparum; conditions: fixed dose of 1 µM, 48 h incubation
Method: as §3, §4

[18] = parameters: method as in PMID 34097488; conditions: cited from earlier work
HepG2 = conditions: cited from earlier work
P. berghei sporozoites = conditions: cited from earlier work
[19] = effect on the cytoskeleton on day 7

C[C@H]1[C@@H](O)O[C@@H]2O[C@@]3(C)CC[C@H]4[C@H](C)CC[C@@H]1[C@@]24OO3 [DHA 2, Dihydroartemisinin]
IC50 [1]: 1.4 ± 0.4 nM | IC50 [2]: 2.3 ± 0.7 nM | IC50 (7G8 (CQ resistant)): 1.3 ± 0.2 nM | IC50 ([3]; asexual blood stage Pf K1, multidrug resistant, SYBR Green I, ± SEM): 1.51 ± 0.33 nM | RI (resistance index) = IC50 K1/IC50 NF54 [3]: 0.6 | IC50 (W2 (CQ resistant)): 2.2 ± 0.8 nM | IC50 [4]: 2.51 ± 0.19 nM | IC50 (D6 (CQ sensitive)): 1.7 ± 0.4 nM | IC50 [5]: 43 ± 3.9 nM | EC50 [6]: 25.2 µM | IC50 ([7]; 36 h life cycle, PfKI3 C580Y): 6.41 nM | IC90 ([7]; 36 h life cycle, PfKI3 C580Y): 10.7 nM | RI = IC50 for PL08-09 (5C)/IC50 for W2 [7]: 1.4 | IC50 ([8]; asexual blood stage Pf W2, multidrug resistant, SYBR Green I, ± SEM): 1.74 ± 0.22 nM | RI = IC50 W2/IC50 NF54 [8]: 0.7 | IC50 (TM-C2B): 2 ± 0.7 nM | IC50 (P. falciparum W2): 4.58 nM | IC90 (P. falciparum W2): 10.3 nM | IC50 [9]: 33.7 ± 1.98 nM | IC50 ([10]; 48 h life cycle, PfKI3 C580Y): 6.68 nM | IC90 ([10]; 48 h life cycle, PfKI3 C580Y): 15.4 nM | RI = IC50 for ARC08-22(4G)/IC50 for W2 [10]: 1.5 | ATP IC50 ([11]; ATP levels 1 day after initial administration): 0.08 µg/mL | Neurofilaments IC50 [11, 19]: 0.01 µg/mL | Neurofilaments NOEC [11, 19]: < 0.001 µg/mL | Viability IC50 ([11]; neuron-specific enolase activity, 7 days exposure): 5.0 µg/mL

C[C@H]1[C@H](N2C=CS(=O)(=O)CC2)O[C@@H]2O[C@@]3(C)CC[C@H]4[C@H](C)CC[C@@H]1[C@@]24OO3 [M1 8, M1]
IC50 [1]: 2.5 ± 0.4 nM | IC50 [2]: 5 ± 0.6 nM | IC50 ([12]; Plasmodium falciparum, NF54, 96 h, asexual blood stage Pf NF54, CQ sensitive, SYBR Green I, 96 h, ± SEM, read-out: IC50 NF54): 2.63 ± 0.24 nM | IC50 ([12]; Plasmodium falciparum, NF54, summary over NF54, K1 and W2 strains, read-out: IC50 against asexual Pf blood stage parasites): ~2 nM | IC50 ([12]; summary over NF54, K1 and W2 strains, read-out: IC50 against asexual Pf blood stage parasites): 1.5 to 2.6 nM | IC50 (7G8 (CQ resistant)): 2.6 ± 0.8 nM | IC50 (W2 (CQ resistant)): 6.6 ± 0.4 nM | IC50 (D6 (CQ sensitive)): 4.7 ± 0.2 nM | RI = IC50 W2/IC50 NF54 [13]: 0.86 | IC50 ([13]; Plasmodium falciparum, asexual blood stage Pf W2, multidrug resistant, SYBR Green I, 96 h, ± SEM): 2.26 ± 0.08 nM | IC50 (TM-C2B): 8.6 ± 8.2 nM | RI (resistance index) = IC50 K1/IC50 NF54 [14]: 0.57 | IC50 ([14]; Plasmodium falciparum, asexual blood stage Pf K1, multidrug resistant, SYBR Green I, 96 h, ± SEM): 1.5 ± 0.23 nM | IC50 [15]: 13.4 ± 2.7 nM | IC50 at 24 h [16]: > 50 µM | inhibition of LG viability [17]: > 90% | fold greater human microsomal half-life than artemisone [18]: > 15 fold | fold greater human microsomal half-life than artemisone ([18]; listed as M1): ≥ 15 fold

OC(c1cc(C(F)(F)F)nc2c(C(F)(F)F)cccc12)C1CCCCN1 (stereo not shown) [Mefloquine]
IC50 [1]: 16 ± 5 nM | IC50 [2]: 107 ± 41 nM | IC50 (7G8 (CQ resistant)): 5.4 ± 1.7 nM | IC50 (TM-C2B): 130 ± 51 nM

CN(C)c1ccc2nc3ccc(=[N+](C)C)cc-3sc2c1 [Methylene Blue]
IC50 [4]: 5 ± 0.8 nM | IC50 [5]: 95 ± 11.3 nM | IC50 [9]: 143 ± 16.7 nM

COc1ccc(C[C@H](N)C(=O)N[C@H]2[C@@H](O)[C@H](n3cnc4c(N(C)C)ncnc43)O[C@@H]2CO)cc1 [Puromycin, reference compound]
EC50 (HepG2): 117 nM | SI = EC50 HepG2/IC50 P. berghei sporozoites (HepG2; ref S3): 5.15 | Maximum inhibition % P. berghei sporozoites (P. berghei sporozoites; at 5 µM, ref S3): 110±4.24% | IC50 (P. berghei sporozoites; luciferase-expressing P. berghei ANKA GFP-Luc-SMcon sporozoites in HepG2 cells, 48 h, ± SD, ref S3 (7)): 22.7 ± 4.53 nM
